Data set [1] can be described thus: Selectivity ratio of Ki for binding affinity to bovine thrombin assessed as inhibition constant using tosyl-Gly-Pro-Arg-AMC as substrate to Ki for binding affinity to N-terminal MRGS(His)6GSDDDDK-tagged Matriptase (unknown origin) expressed in Escherichia coli assessed as inhibition constant using Mes-DArg-Pro-Arg-AMC as substrate. As to conditions: Homo sapiens.

Another data set is filed under the species Homo sapiens. As to the kind of experiment: Selectivity ratio of Ki for binding affinity to FXa (unknown origin) using Mes-DArg-Pro-Arg-AMC as substrate to Ki for binding affinity to N-terminal MRGS(His)6GSDDDDK-tagged Matriptase (unknown origin ) expressed in Escherichia coli assessed as inhibition constant using Mes-DArg-Pro-Arg-AMC as substrate.
The target in the next data set is Coagulation factor X (Homo sapiens, UniProt P00742). As to the kind of experiment: Binding affinity to FXa (unknown origin) using Mes-DArg-Pro-Arg-AMC as substrate.
Chain of Coagulation factor X (P00742 41-179 limits assumed): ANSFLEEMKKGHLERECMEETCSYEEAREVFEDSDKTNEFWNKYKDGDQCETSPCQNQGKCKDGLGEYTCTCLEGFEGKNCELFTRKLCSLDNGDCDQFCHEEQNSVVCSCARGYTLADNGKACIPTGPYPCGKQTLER
Chain of Coagulation factor X (P00742 235-488 limits assumed): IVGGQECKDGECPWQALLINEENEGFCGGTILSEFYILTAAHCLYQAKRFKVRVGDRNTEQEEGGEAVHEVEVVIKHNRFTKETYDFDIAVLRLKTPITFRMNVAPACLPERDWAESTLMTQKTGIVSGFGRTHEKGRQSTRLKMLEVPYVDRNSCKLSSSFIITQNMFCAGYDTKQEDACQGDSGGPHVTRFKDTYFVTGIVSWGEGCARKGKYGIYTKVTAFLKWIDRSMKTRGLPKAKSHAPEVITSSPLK
In data set [2] the target is T1, Suppressor of tumorigenicity 14 protein (Homo sapiens, UniProt Q9Y5Y6).
T1 sequence (Q9Y5Y6 whole entry): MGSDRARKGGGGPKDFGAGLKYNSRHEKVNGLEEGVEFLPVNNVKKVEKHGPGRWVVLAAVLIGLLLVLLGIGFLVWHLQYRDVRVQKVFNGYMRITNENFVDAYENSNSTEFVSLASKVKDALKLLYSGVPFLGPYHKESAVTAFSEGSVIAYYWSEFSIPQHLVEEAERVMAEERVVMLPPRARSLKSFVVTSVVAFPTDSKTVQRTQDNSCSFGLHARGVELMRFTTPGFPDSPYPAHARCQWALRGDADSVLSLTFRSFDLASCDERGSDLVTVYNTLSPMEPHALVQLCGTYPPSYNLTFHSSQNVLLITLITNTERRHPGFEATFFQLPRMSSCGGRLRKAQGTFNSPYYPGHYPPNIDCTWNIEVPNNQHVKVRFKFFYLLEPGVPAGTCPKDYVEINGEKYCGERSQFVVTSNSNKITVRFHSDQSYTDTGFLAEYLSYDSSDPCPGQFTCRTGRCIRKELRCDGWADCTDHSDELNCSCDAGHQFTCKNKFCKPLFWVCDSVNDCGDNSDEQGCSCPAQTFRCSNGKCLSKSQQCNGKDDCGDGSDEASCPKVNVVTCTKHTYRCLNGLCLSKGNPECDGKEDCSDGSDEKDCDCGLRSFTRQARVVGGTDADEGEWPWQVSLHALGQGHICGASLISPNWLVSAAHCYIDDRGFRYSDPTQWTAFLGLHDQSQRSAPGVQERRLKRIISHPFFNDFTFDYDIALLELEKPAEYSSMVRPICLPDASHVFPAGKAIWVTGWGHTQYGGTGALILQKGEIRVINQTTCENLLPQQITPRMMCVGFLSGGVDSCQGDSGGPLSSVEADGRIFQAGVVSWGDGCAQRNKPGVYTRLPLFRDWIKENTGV
Description: Binding affinity to N-terminal MRGS(His)6GSDDDDK-tagged Matriptase (unknown origin) expressed in Escherichia coli assessed as inhibition constant using Mes-DArg-Pro-Arg-AMC as substrate.

Another data set deals with Prothrombin (Bos taurus, UniProt P00735). As to the kind of experiment: Binding affinity to bovine thrombin assessed as inhibition constant using tosyl-Gly-Pro-Arg-AMC as substrate.
Data set [3] has as its system Influenza A virus. As to the kind of experiment: Antiviral activity against Influenza A virus H9N2 infected in MDCK-II cells assessed as reduction in comet-shaped foci at 20 uM measured after 24 hrs by immunostaining based assay. It is filed as functional, organism-based.
In another data set the test system is MDCK-II. As to the kind of experiment: Cytotoxicity against MDCK-II cells assessed as reduction in cell viability at 50 uM measured for 24 hrs by Celltiter-glo luminescent assay. As to conditions: dog. It is filed as toxicity, cell-based, Canis lupus familiaris. A general note: In ATP-based viability assays light output follows the ATP content of the culture.

For data set [4], the system named is Influenza A virus. Description: Antiviral activity against Influenza A virus H9N2 infected in MDCK-II cells assessed as inhibition of viral replication measured after 24 hrs by immunostaining based assay. It is filed as functional, organism-based. As to conditions: DDE = dose-dependent effect.
For data set [5], the system named is Influenza A virus. Description: Antiviral activity against Influenza A virus H9N2 infected in MDCK-II cells assessed as reduction in comet-shaped foci at 50 uM measured after 24 hrs by immunostaining based assay. The data set is classed as functional, organism-based.
The test system of data set [6] is Influenza A virus. Description: Antiviral activity against Influenza A virus H9N2 infected in MDCK-II cells assessed as reduction in viral titer in supernatants at 5 to 50 uM measured after 24 hrs by plaque assay. The data set is classed as functional, organism-based. As to conditions: dose 5-50 µM.

Calls of active or inactive are those of the source. The rule behind the calls is not given here.

On to `CC(C)Oc1ccc(-c2cccc(S(=O)(=O)N[C@@H](Cc3cccc(C(=N)N)c3)C(=O)N3CCC(NC(=O)NC(C)(C)C)CC3)c2)cc1`, for which the figures for the Ratio Ki (in [1]; in the data set filed under Homo sapiens) were 89 and 9.3, respectively. In addition, the values for the Ki (at Coagulation factor X; in data set [2]; on Prothrombin) were 439 nM, 58 nM and 5140 nM, respectively.

For the compound `COc1ccc(-c2cccc(S(=O)(=O)N[C@@H](Cc3cccc(C(=N)N)c3)C(=O)N3CCN(C(=O)C(C)(C)C)CC3)c2)c(OC)c1`, the figures for the Ratio Ki (in data set [1]; in the data set filed under Homo sapiens) were 0.3 and 0.8, respectively. The Ki at Coagulation factor X worked out at 116 nM; in data set [2], 143 nM; on Prothrombin, 42 nM.

For `CC(C)(C)NC(=O)NC1CCN(C(=O)[C@H](Cc2cccc(C(=N)N)c2)NS(=O)(=O)c2cccc(-c3ccc(CN)cc3)c2)CC1`, the Ratio Ki was 138 in data set [1] and 2.5 in the data set filed under Homo sapiens. For the same compound, the Ki on Coagulation factor X was 10 nM; in [2] it was 4 nM; at Prothrombin, 553 nM.

For the compound `CNC(=O)NC1CCN(C(=O)[C@H](Cc2cccc(C(=N)N)c2)NS(=O)(=O)c2cccc(-c3ccc(OC)cc3OC)c2)CC1`, the results for the Ratio Ki (in data set [1]; in the data set listed under Homo sapiens) were 3.4 and 0.9, respectively. Also, the Ki at Coagulation factor X turned out to be 23 nM; in [2], 26 nM; on Prothrombin it was 89 nM.

On to `CC(C)(C)NC(=O)NC1CCN(C(=O)[C@H](Cc2cccc(C(=N)N)c2)NS(=O)(=O)c2cccc(-c3ccc(COC(C)(C)C)cc3)c2)CC1`, for which the Ratio Ki in data set [1] worked out at 15; in the data set listed under Homo sapiens it was 3.1. For the same compound, the Ki on Coagulation factor X was determined as 529 nM; in data set [2] it was 171 nM; on Prothrombin it was 2520 nM.

As to `COCc1ccc(-c2cccc(S(=O)(=O)N[C@@H](Cc3cccc(C(=N)N)c3)C(=O)N3CCC(NC(=O)NC(C)(C)C)CC3)c2)cc1`, the Ratio Ki came out at 199 in data set [1] and 20 in the data set listed under Homo sapiens. Further, the Ki at Coagulation factor X turned out to be 179 nM; in data set [2], 9 nM; at Prothrombin it was 1790 nM.

On to `COc1ccc(-c2cccc(S(=O)(=O)N[C@@H](Cc3cccc(C(=N)N)c3)C(=O)N3CCC(NC(=O)NC(C)C)CC3)c2)c(OC)c1`, for which the results for the Ratio Ki (in [1]; in the data set listed under Homo sapiens) were 29 and 0.4, respectively. Besides, the Ki at Coagulation factor X is 3 nM; in data set [2], 8 nM; at Prothrombin it was 228 nM.

On to `COc1ccc(-c2cccc(S(=O)(=O)N[C@@H](Cc3cccc(C(=N)N)c3)C(=O)N3CCN(C(=O)NC(C)(C)C)CC3)c2)c(OC)c1`, for which the results for the Ratio Ki (in data set [1]; in the data set listed under Homo sapiens) were 0.7 and 0.1, respectively. In addition, the figures for the inhibitory constant (Ki) (on Coagulation factor X; in data set [2]; on Prothrombin) were 13 nM, 104 nM and 73 nM, respectively.

Take `Cc1ccc(-c2cccc(S(=O)(=O)N[C@@H](Cc3cccc(C(=N)N)c3)C(=O)N3CCC(NC(=O)NC(C)(C)C)CC3)c2)cc1`: the Ratio Ki worked out at 59 in data set [1] and 4 in the data set listed under Homo sapiens. The Ki was 28 nM on Coagulation factor X, 7 nM in data set [2] and 412 nM at Prothrombin.

On to `CC(C)(C)NC(=O)NC1CCN(C(=O)[C@H](Cc2cccc(C(=N)N)c2)NS(=O)(=O)c2cccc(-c3ccc(F)c(CO)c3)c2)CC1`, for which the Ratio Ki came out at 21 in data set [1] and 1 in the data set filed under Homo sapiens. In addition, the Ki was determined as 51 nM on Coagulation factor X, 50 nM in data set [2] and 1070 nM on Prothrombin.

Turning to `COc1ccc(-c2cccc(S(=O)(=O)N[C@@H](Cc3cccc(C(=N)N)c3)C(=O)N3CCN(C(=O)C4CCCCC4)CC3)c2)c(OC)c1`, the Ratio Ki in [1] is 10; in the data set filed under Homo sapiens, 2.2. Besides, the figures for the Ki (on Coagulation factor X; in data set [2]; at Prothrombin) were 95 nM, 43 nM and 414 nM, respectively.

In the case of `CC(C)(C)NC(=O)NC1CCN(C(=O)[C@H](Cc2cccc(C(=N)N)c2)NS(=O)(=O)c2cccc(-c3ccc(Cl)cc3Cl)c2)CC1`, the Ratio Ki is 35 in data set [1] and 0.8 in the data set listed under Homo sapiens. Also, the inhibitory constant (Ki) is 4 nM on Coagulation factor X, 5 nM in data set [2] and 174 nM on Prothrombin.

Regarding `CC(C)(C)NC(=O)NC1CCN(C(=O)[C@H](Cc2cccc(C(=N)N)c2)NS(=O)(=O)c2cccc(-c3ccc(C(=N)N)cc3)c2)CC1`, the values for the Ratio Ki (in data set [1]; in the data set filed under Homo sapiens) were 561 and 105, respectively. Moreover, the Ki is 84 nM at Coagulation factor X, 0.8 nM in data set [2] and 449 nM at Prothrombin.

For the compound `CC(C)(C)NC(=O)NC1CCN(C(=O)[C@H](Cc2cccc(C(=N)N)c2)NS(=O)(=O)c2cccc(-c3ccc(CO)cc3)c2)CC1`, the Ratio Ki was 1090 in data set [1] and 5.5 in the data set filed under Homo sapiens. In addition, the values for the Ki (on Coagulation factor X; in data set [2]; on Prothrombin) were 60 nM, 11 nM and 12000 nM, respectively.

With `COc1ccc(-c2cccc(S(=O)(=O)N[C@@H](Cc3cccc(C(=N)N)c3)C(=O)N3CCN(C(=O)NC4CCCCC4)CC3)c2)c(OC)c1`, the Ratio Ki in data set [1] stood at 24; in the data set listed under Homo sapiens, 0.3. For the same compound, the result in the data set on Influenza A virus [3], in the data set with Influenza A virus [5] and in the data set with Influenza A virus [6] was Active. Moreover, the Activity result with MDCK-II was “Toxic”; in the data set with Influenza A virus [4] it was “Dde”. Besides, the values for the Ki (at Coagulation factor X; in [2]; on Prothrombin) were 10 nM, 38 nM and 912 nM, respectively.

Regarding `CC(C)(C)NC(=O)NC1CCN(C(=O)[C@H](Cc2cccc(C(=N)N)c2)NS(=O)(=O)c2cccc(-c3cc(F)c(CO)c(F)c3)c2)CC1`, the Ratio Ki in data set [1] worked out at 492; in the data set filed under Homo sapiens, 21. Also, the Ki amounted to 504 nM at Coagulation factor X, 24 nM in data set [2] and 11800 nM at Prothrombin.

For the compound `COc1ccc(-c2cccc(S(=O)(=O)N[C@@H](Cc3cccc(C(=N)N)c3)C(=O)N3CCN(C(=O)OC(C)(C)C)CC3)c2)c(OC)c1`, the Ratio Ki in data set [1] was determined as 0.7; in the data set filed under Homo sapiens it was 3.1. Besides, the Ki was found to be 52 nM at Coagulation factor X, 17 nM in data set [2] and 12 nM at Prothrombin.

With `CC(C)(C)NC(=O)NC1CCN(C(=O)[C@H](Cc2cccc(C(=N)N)c2)NS(=O)(=O)c2cccc(-c3ccc(N)nc3)c2)CC1`, the Ratio Ki in data set [1] came out at 1420. The Ki was 4 nM on Coagulation factor X, 3 nM in [2] and 4260 nM on Prothrombin.

As for `COc1ccc(-c2cccc(S(=O)(=O)N[C@@H](Cc3cccc(C(=N)N)c3)C(=O)N3CCC(NC(=O)NC(C)(C)C)CC3)c2)c(OC)c1`, the values for the Ratio Ki (in data set [1]; in the data set listed under Homo sapiens) were 600 and 0.7, respectively. In addition, the result in the data set with Influenza A virus [3], with Influenza A virus [5] and in the data set with Influenza A virus [6] was Active. Also, the Activity entry in the data set on MDCK-II was “Toxic”; with Influenza A virus [4], “Dde”. The inhibition constant (Ki) on Coagulation factor X is 2 nM; in [2], 3 nM; at Prothrombin, 1800 nM.

With `CC(C)(C)NC(=O)NC1CCN(C(=O)[C@H](Cc2cccc(C(=N)N)c2)NS(=O)(=O)c2cccc(-c3cccc(CO)c3)c2)CC1`, the Ratio Ki is 8.3 in [1] and 0.6 in the data set listed under Homo sapiens. Further, the inhibition constant Ki on Coagulation factor X was determined as 33 nM; in [2] it was 59 nM; at Prothrombin, 490 nM.

Turning to `CC(C)(C)NC(=O)NC1CCN(C(=O)[C@H](Cc2cccc(C(=N)N)c2)NS(=O)(=O)c2cccc(-c3cccc(CN)c3)c2)CC1`, the Ratio Ki in data set [1] came to 1320; in the data set listed under Homo sapiens it was 0.1. The values for the inhibitory constant (Ki) (at Coagulation factor X; in [2]; at Prothrombin) were 0.1 nM, 1 nM and 1320 nM, respectively.

As usually defined, the Ki is the dissociation constant of the complex between target and ligand, obtained from inhibition or displacement.

The record behind these values is ChEMBL document CHEMBL5113419.
